Results taken from patent US20250101485A1, “METHODS OF PRODUCING C[…] ACID WHEY” (priority 2022, published 2025).
Entries after “also recorded” stand apart in the source; their conditions may differ.

Assays:
lycopene cyclase (CarRP) [1] = biological target: T1, lycopene cyclase (CarRP) (Mucor circinelloides f. lusitanicus, UniProt Q9UUQ6); assay: In vitro enzymatic assay of lycopene cyclase in yeast microsomes; type: biochemical; settings: wild type CarRP (or CarR); lycopene 50˜350 mol/L as substrate, 30° C., 16 h
T1 construct: made in house; host or cells: Yarrowia lipolytica (po1f-derived strains); crude microsomal fraction
Method: (§1) To test this hypothesis, possible correlations between lycopene cyclase activity and lycopene concentration were examined using an in vitro enzymatic assay that employed a yeast microsomal system, as CarRP is predicted to be a membrane protein with six transmembrane helices (FIG. 26). […] This supported the hypothesis that lycopene cyclase was substrate-inhibited, thus creating a major bottleneck in carotenoid biosynthesis.
(§2) Yeast microsomes for in vitro enzymatic assays were prepared as described previously (Pompon et al., 1996). Briefly, strains harboring wild type or mutated CarRP were grown overnight in YNB media at 30° C. and then inoculated into 200 mL YNB media to an initial OD600 of 0.1. After 24 h cultivation, cells were collected by centrifugation at 4,000 rpm for 10 min. Resuspension of the cells in TEK buffer (50 mM Tris-HCl, pH 6.8, 1 mM EDTA, 0.1 M KCl) followed, and the solution was kept at room temperature for 5 min. Afterwards, the cells were recovered by centrifugation, washed in TES buffer (50 mM Tris-HCl, pH 6.8, 1 mM EDTA, 0.6 M sorbitol), resuspended in TESM buffer (50 mM Tris-HCl, pH 6.8, 1 mM EDTA, 0.6 M sorbitol, 14 mM 2-mercaptoethanol), and left at room temperature for 10 min. […] The solution was vortex for 10 min, and the organic phase was collected by centrifugation and analyzed by HPLC.

lycopene cyclase (CarRP) [2] = biological target: T2, lycopene cyclase (CarRP) (Mucor circinelloides f. lusitanicus, UniProt Q9UUQ6, Y27R); assay: as above; type: biochemical; settings: CarRP (or CarR) variant compared to wild type; relative catalytic activity, FIG. 16D
T2 construct: made in house; host or cells: Yarrowia lipolytica (po1f-derived strains); crude microsomal fraction
Method: as §1, §2

T2 sequence (Q9UUQ6 whole entry Y27R): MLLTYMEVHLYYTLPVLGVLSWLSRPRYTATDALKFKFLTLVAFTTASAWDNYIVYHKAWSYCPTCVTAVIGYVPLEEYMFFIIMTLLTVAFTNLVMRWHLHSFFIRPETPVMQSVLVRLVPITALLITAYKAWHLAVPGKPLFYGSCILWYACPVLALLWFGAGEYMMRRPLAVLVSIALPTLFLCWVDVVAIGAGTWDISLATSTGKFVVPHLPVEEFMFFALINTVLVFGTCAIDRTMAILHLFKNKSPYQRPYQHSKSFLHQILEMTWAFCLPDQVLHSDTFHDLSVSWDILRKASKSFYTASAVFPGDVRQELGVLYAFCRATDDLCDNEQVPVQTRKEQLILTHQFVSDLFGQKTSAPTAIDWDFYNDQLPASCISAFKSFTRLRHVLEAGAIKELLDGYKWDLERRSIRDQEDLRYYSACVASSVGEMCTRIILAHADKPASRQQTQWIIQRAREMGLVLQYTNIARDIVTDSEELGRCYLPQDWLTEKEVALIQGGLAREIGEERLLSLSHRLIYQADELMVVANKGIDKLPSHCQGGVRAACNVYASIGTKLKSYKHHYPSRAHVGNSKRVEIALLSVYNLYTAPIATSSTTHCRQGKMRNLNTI
T1 sequence (Q9UUQ6 whole entry): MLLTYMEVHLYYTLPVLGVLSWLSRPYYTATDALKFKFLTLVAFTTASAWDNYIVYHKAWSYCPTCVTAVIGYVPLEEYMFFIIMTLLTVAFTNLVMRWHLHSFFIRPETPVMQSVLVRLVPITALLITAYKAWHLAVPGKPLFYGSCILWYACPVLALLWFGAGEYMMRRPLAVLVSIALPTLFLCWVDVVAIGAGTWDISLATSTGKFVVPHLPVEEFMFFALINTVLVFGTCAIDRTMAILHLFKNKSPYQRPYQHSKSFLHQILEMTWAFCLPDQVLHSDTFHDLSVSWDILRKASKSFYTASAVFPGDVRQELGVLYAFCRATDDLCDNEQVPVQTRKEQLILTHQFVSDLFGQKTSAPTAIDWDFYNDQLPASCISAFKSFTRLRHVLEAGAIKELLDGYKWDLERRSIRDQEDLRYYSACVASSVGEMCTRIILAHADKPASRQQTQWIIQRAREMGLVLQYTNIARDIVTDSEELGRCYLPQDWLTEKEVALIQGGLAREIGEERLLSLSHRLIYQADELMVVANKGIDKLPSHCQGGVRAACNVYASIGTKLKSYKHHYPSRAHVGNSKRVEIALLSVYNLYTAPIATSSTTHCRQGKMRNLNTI

Molecule	lycopene cyclase activity with respect to lycopene concentration (substrate inhibition) (lycopene cyclase (CarRP) [1])	substrate inhibition of lycopene cyclase variant by lycopene (lycopene cyclase (CarRP) [2])
CC(C)=CCC/C(C)=C/C=C/C(C)=C/C=C/C(C)=C/C=C/C=C(C)/C=C/C=C(C)/C=C/C=C(\C)CCC=C(C)C [lycopene]	bi-phasic; also recorded: inhibited its downstream enzyme, lycopene cyclase, through substrate inhibition	–
Y27R: variant of the R domain (lycopene cyclase) of CarRP with the substitution Y27R (protein) MLLTYMEVHLYYTLPVLGVLSWLSRPRYTATDALKFKFLTLVAFTTASAWDNYIVYHKAWSYCPTCVTAVIGYVPLEEYMFFIIMTLLTVAFTNLVMRWHLHSFFIRPETPVMQSVLVRLVPITALLITAYKAWHLAVPGKPLFYGSCILWYACPVLALLWFGAGEYMMRRPLAVLVSIALPTLFLCWVDVVAIGAGTWDISLATSTGKFVVPHLPVEEFMFFALINTVLVFGTCAI	–	complete loss of substrate inhibition without reduction in enzyme activity; also recorded: completely free of substrate inhibition
